Data: patent publication US20150313862A1, “"Pharmaceutical composition for reducing the trimethylamine N-oxide level"” (Latvian Institute of Organic Synthesis, priority 2012, published 2015)
Marks after values point to notes of the source that are not given here.

Assays:
[1] = cited from earlier work
TMANO [2] = assay: TMANO concentration in blood plasma of healthy volunteers on a TMANO source rich diet (UPLC-MS/MS); format: in vivo, human; conditions: for TMANO concentration in study participant's blood plasma: healthy volunteers (n=8), after 7 days TMANO source rich diet (150 g fish/day) with oral Meldonium 500 mg twice a day, mean ± SEM, diet alone 81.5 ± 8.6, baseline 4.9 ± 1.3, dihydrate
Protocol: (§1) Eight healthy volunteers were involved in the study, 4 women and 4 men. The study was conducted in accordance with the Declaration of Helsinki, and with bioethical norms approved by the Central Committee of Medical Ethics. All study participants have signed informed consent forms. Exclusion criteria for participation in the study were: the use of dietary supplements, smoking, pregnancy and alcohol addiction. At the study beginning information about the participant's age, medication use, height and weight was recorded.
(§2) Then, a venous blood sample and evening and morning urine samples were collected from the study participants. At the first stage of experiment, all participants received 150 grams of fish for lunch, once a day, during 7 days, which served as a source of TMANO increased formation in the body (W. J. Dyer. Amines in Fish Muscle. VI. Trimethylamine Oxide Content of Fish and Marine Invertebrates, Journal of the Fisheries Research Board of Canada, 8c(5): 314-324, 10.1139/f50-020, 1952).
During the next stage of experiment, to determine the effect of Meldonium on TMANO concentration in blood plasma and urine, in addition to trimethylamine-rich food source, a pharmaceutical composition containing 500 mg of Meldonium was administered to each study participant during 7 days, twice a day (morning and evening). […]
(§3) TMANO concentration in plasma and urine samples was determined by ultrahigh performance liquid chromatography-tandem mass spectrometry method. […] TMANO detection and quantification was performed using Quattro Micro™ spectrometer (Micromass) in an ion reaction monitoring (TMANO ion transition m/z75.8>m/z58.3, IS ion transition m/z175.4>m/z86.0) positive electrospraying mode (cone voltage 26V, collision energy 14 eV, collision gas—argon). […]
TMANO concentration in the sample was calculated using the linear relationship TMANO peak area/IS peak area—TMANO concentration using the data processing software QuanLynx V4.1 (Waters). […]

TMANO [3] = assay: Total amount of TMANO excreted with urine during 7 days, healthy volunteers on a TMANO source rich diet (UPLC-MS/MS, creatinine by Jaffe method); format: in vivo, human; conditions: for Total excreted with urine TMANO amount during 7 days: healthy volunteers (n=8), 7 days TMANO source rich diet with oral Meldonium 1 g/day, area under the curve, mean ± SEM, diet alone 18.2 ± 2.2, baseline 2.8 ± 0.6, dihydrate
Protocol: as §1
as §2, with “1952). […]” for “1952).”
as §3
TMANO concentration in the sample was calculated using the linear relationship TMANO peak area/IS peak area—TMANO concentration using the data processing software QuanLynx V4.1 (Waters).
Creatinine concentration was calculated by slightly modified Jaffe method (Jaffe M. Ueber die Niederschlag, welchen Pikrinsaure in normalem Ham erzeugt and uber eine neue Reaction des Kreatinins. Z physiol Chem 1886; 10: 391-400). […] After 10 min of incubation at room temperature the absorbance was measured at 492 nm with a μQuant™ multiwell plate […] spectrophotometer (Biotek Instruments, USA). […]

SMILES: C[N+](C)(C)NCCC(=O)[O-] [Meldonium, 3-(2,2,2-trimethyhydrazinium)propionate dihydrate]
- Solubility in water [1]: easily soluble in water
- Reduction of TMANO plasma concentration (TMANO [2]; 7 days oral Meldonium 500 mg twice a day with TMANO-rich food, compared with TMANO level before Meldonium use, statistically significant): 47%
- TMANO concentration in study participant's blood plasma (TMANO [2]): 43.0 ± 3.8 nmol/mL
- TMANO concentration in study participant's blood plasma (TMANO [2]; listed as TMANO + Meldonium): 43.0 ± 3.8*^,# nmol/ml
- Increase of urine excreted TMANO amount (TMANO [3]; 7 days oral Meldonium 500 mg twice a day with TMANO-rich food, versus before Meldonium use, statistically significant): about 25%
- Total excreted with urine TMANO amount during 7 days (TMANO [3]): 24.3±1.5 μmol/mg creatinine *7 d
- Total excreted with urine TMANO amount during 7 days (TMANO [3]; listed as TMANO + Meldonium): 24.3 ± 1.5*^,# μmol/mg creatinine *7 d
